“And” between values parts separate entries of the source, which are not always exact repeats. Equal values may be shown once. “Also recorded” adds a separate entry of the source. Where a name gives a salt, the structure may show the parent alone. Read-outs that look alike come from different tables or passages of the source.
How the values were obtained:
[1] = test system: ornithine decarboxylase (ODC); assay: ODC activity in treated L1210 cells; assay type: cell-based, murine; conditions: L1210, 1 μM at 4 hours
Method in brief: (§1)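 L1210 cells treated with triamines; ODC activity measured at 4 h and AdoMetDC at 6 h as ^14CO2 released from [^14C]-carboxyl-labeled L-ornithine (ODC) or S-adenosyl-L-methionine (AdoMetDC). Untreated cells served as controls and DEHSPM-treated cells as positive controls.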

L1210 cells [2] = assay: Polyamine pool analysis in L1210 cells; assay type: cell-based, murine; conditions: for activity at 3 µM / activity at 15 µM / activity at 75 µM / activity at 100 µM / activity at 500 µM: Mus musculus, % of untreated control; for activity at 3 µM / activity at 15 µM / activity at 75 µM: L1210; for activity at 3 µM / activity at 15 µM / Analogue / activity at 75 µM: 48 hours; for Analogue: intracellular amount; for activity at 100 µM / activity at 500 µM: L1210, 48 h
Method in brief: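 Cells were exposed to each analogue for 48 h at two concentrations. Washed pellets were extracted with 0.6 N HClO4 (1 ml/10^7 cells), and polyamines were quantified by HPLC of dansyl derivatives.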

L1210 cells [3] = assay: Metabolic transformation of polyamine analogues by L1210 cells; assay type: in vitro ADME, murine; conditions: for Parent drug as % of total drug in the cell / Parent drug in L1210 cells / N-Monodealkylation (result in words): 48 hours; for N-Monodealkylation (result in words): Trihydrochloride; for N-dealkylation (result in words): L1210 cells, data not shown, concentration not given
Procedure: The cells were washed twice with cold RPMI-1640, and the pellet was treated with 0.6 N HClO4 (1 ml/10^7 cells). Polyamine contents of the perchloric acid extracts were quantitated by HPLC of the DANSYL derivatives [Bergeron et al, J. Med. Chem., Vol. 37, supra].

L1210 cells [4] = assay: L1210 growth inhibition, IC50 determination; assay type: cell-based, murine
Procedure: Murine L1210 leukemia cells (ATCC CCL 219) were maintained in logarithmic growth in RPMI-1640 medium containing 10% fetal calf serum or a semi-synthetic equivalent, NuSerum, 2% HEPES-MOPS buffer and 1 mM aminoguanidine.

[5] = test system: spermidine/spermine acetyltransferase (SSAT); assay: SSAT activity in treated L1210 cells; assay type: cell-based, murine; conditions: L1210, 10 μM at 48 hours (triamine analogues)
Source text: Spermidine/spermine N^1-acetyltransferase activity was based on quantitation of [^14C]-N^1-acetylspermidine formed by acetylation of SPD with [^14C] acetyl coenzyme A according to the method of Libby et al [Biochem. Pharmacol., Vol. 38, supra]. Cells treated with DENSPM were positive controls.

[6] = Acute toxicity in mice (single i.p. dose); assay type: in vivo; conditions: female, CD-1, mouse, in vivo, ip, mice, single dose i.p., scored two hours after dose, read-out: Acute LD50
Procedure: In the current study, the acute toxicity of six analogues and the chronic toxicity of two triamines were measured (Table 7). The value of all polyamine LD50s are shown in both mg/kg and mmol/kg for comparison. […] The animals were scored two hours after administration of the drug. It is clear that the acute LD50s for triamine analogues are approximately twice the acute LD50s for the corresponding tetraamine analogues.
(§2) Acute and chronic toxicities were assessed in 10-12 week old CD-1 female mice from Harlan Sprague-Dawley. For acute toxicities, the polyamine analogues were administered in a single i.p. injection to groups of five or six animals at each dose. The animals were scored two hours after administration of the dose. All survivors were further observed for 10 days to assess late onset of toxicity from the single acute dose. In the chronic toxicity regimen, mice were administered polyamine analogue in three i.p. doses per day (t.i.d.) for six days, for a total of eighteen doses per animal. Appetite, weight and overall appearance were monitored daily. […] At least three test groups of 5-6 animals each, representing three different dose levels, were evaluated for each analogue tested. These dose levels were chosen so that at least two groups presented with lethalities, one with a high fraction of lethalities (>0.50, but <1.00).

[7] = test system: polyamine transport apparatus; assay: Competitive uptake determination: inhibition of [3H]spermidine transport into L1210 cells; assay type: cell-based, murine; conditions: analogue inhibition of spermidine transport
Method in brief: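 Analogues competed with [3H]spermidine for uptake into L1210 cells. Values are Ki, derived from Lineweaver–Burk analysis as competitive inhibition with respect to spermidine.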

mice = assay type: in vivo; conditions: for Chronic toxicity in mice relative to the related tetraamine: ratio of chronic LD50 values, Table 7
Procedure: In the chronic toxicity regimen, mice were administered the polyamine analogue in three doses per day (t.i.d.) for six days for a total of eighteen injections per animal and observed for 10 days after the final dose for lethalities. […] A similar difference is also observed in the chronic toxicity of DE(3,4).
as §2

[8] = test system: S-adenosylmethionine decarboxylase (AdoMetDC); assay: AdoMetDC activity in treated L1210 cells; assay type: cell-based, murine; conditions: L1210, 1 μM at 6 hours
Method in brief: as §1

[9] = molecular target: polyamine transport apparatus; conditions: inhibition of spermidine transport, L1210; read-out: Ki, corresponding tetraamine (in parentheses); cited from earlier work
L1210 cells [10] = conditions: 48 hours, cited from earlier work; for Analogue, corresponding tetraamine (in parentheses): intracellular amount
L1210 cells [11] = conditions: cited from earlier work
[12] = test system: spermidine/spermine acetyltransferase (SSAT); conditions: L1210, 2 μM at 48 hours (tetraamine analogues); cited from earlier work
[13] = test system: S-adenosylmethionine decarboxylase (AdoMetDC); conditions: L1210, 1 μM at 6 hours; cited from earlier work
[14] = Mus musculus, L1210, 48 h, L1210, 48 hour exposure, read-out: IC50 48 hour
[15] = Mus musculus, L1210, 96 h, L1210, 96 hour exposure, read-out: IC50 96 hour
[16] = mice, i.p. t.i.d. × 6 days, hydrochloride salts
[17] = L1210, 48 hour exposure, read-out: IC50 48 hour, corresponding tetraamine (in parentheses)
[18] = L1210, 96 hour exposure, read-out: IC50 96 hour, corresponding tetraamine (in parentheses)

| Structure (SMILES) | ODC activity, percent of untreated control [1] | activity at 15 µM (L1210 cells [2]; 15 μM, read-out: Put) [%] | activity at 15 µM (L1210 cells [2]; 15 μM, read-out: Spd) [%] | activity at 15 µM (L1210 cells [2]; 15 μM, read-out: Spm) [%] | Analogue (L1210 cells [2]; 15 μM) [nmol/10^6 cells] | Parent drug as % of total drug in the cell (L1210 cells [3]; 100 μM analogue) [%] | Parent drug in L1210 cells (L1210 cells [3]; 100 μM analogue) [pmols/10^6] | IC50 (L1210 cells [4]; [14]) [µM] | IC50 (L1210 cells [4]; [15]) [µM] | LD50 at 2 h ([6]; hydrochloride salts) [mg/kg] | LD50 at 2 h [6] [µmol/kg] | Ki [7] [µM] | Chronic LD50 (triamines) (mice; [16]) [mg/kg-day] | Chronic LD50 (triamines) (mice; mouse, in vivo, ip) [mmol/kg/day] | AdoMetDC activity, percent of untreated control [8] | Ki [9] [µM] | IC50 (L1210 cells [11]; [17]) [µM] | IC50 (L1210 cells [11]; [18]) [µM] | SSAT activity, corresponding tetraamine (in parentheses) [12] | AdoMetDC activity, corresponding tetraamine (in parentheses) [13] | further results |
| --- | --- | --- | --- | --- | --- | --- | --- | --- | --- | --- | --- | --- | --- | --- | --- | --- | --- | --- | --- | --- | --- |
| CCNCCCCCNCCCCNCC [DE(4,5), 3,8,14-Triazahexadecane Trihydrochloride] | 100% of untreated control | 0 | 18 | 98 | 3.40 | 100 | 4215 | 2 to 6 | 0.19 to 0.2 | 555 | 1640 | 64 | 375 | 1.11 | 70% of untreated control | – | – | – | – | – | activity at 3 µM (L1210 cells [2]; 3 μM, read-out: Put): 0%; activity at 3 µM (L1210 cells [2]; 3 μM, read-out: Spd): 47%; activity at 3 µM (L1210 cells [2]; 3 μM, read-out: Spm): 99%; Analogue (L1210 cells [2]; 3 μM): 1.20 nmol/10^6 cells; N-Monodealkylation (result in words) (L1210 cells [3]; 100 μM analogue): do not show significant N-deethylation; also recorded: no N-deethylation; IC50 (L1210 cells [4]; L1210, 48 hour exposure, Trihydrochloride, read-out: IC50 48 hour): 3 to 6 µM; SSAT activity, percent of untreated control ([5]; Trihydrochloride): 120% of untreated control and 120 (120) percent of untreated control; Chronic toxicity in mice relative to the related tetraamine (mice; Trihydrochloride): about eight-fold less toxic than the DE(4,5,4); also recorded: greater than ten-fold less toxic than DE(5,4,5) |
| CCNCCCCCNCCCCCNCC [DE(5,5), 3,9,15-Triazaheptadecane Trihydrochloride] | 100% of untreated control | 0 | 55 | 97 | 1.09 | – | – | 10 to 12 | 0.65 to 0.7 | 500 | 1420 | 174 | – | – | 109% of untreated control | – | – | – | – | – | activity at 75 µM (L1210 cells [2]; 75 μM, read-out: Put): 0%; activity at 75 µM (L1210 cells [2]; 75 μM, read-out: Spd): 23%; activity at 75 µM (L1210 cells [2]; 75 μM, read-out: Spm): 73%; Analogue (L1210 cells [2]; 75 μM): 1.59 nmol/10^6 cells; Parent drug as % of total drug in the cell (L1210 cells [3]; 75 μM analogue): 100%; Parent drug in L1210 cells (L1210 cells [3]; 75 μM analogue): 1585 pmols/10^6; N-Monodealkylation (result in words) (L1210 cells [3]; 75 μM analogue): do not show significant N-deethylation; N-Monodealkylation (result in words) (L1210 cells [3]; 75 μM analogue, listed as DE-[6,6]): no N-deethylation; SSAT activity, percent of untreated control [5]: 90% of untreated control |
| CCNCCCCNCCCNCC [DESPD, N^1,N^8-Diethylspermidine Trihydrochloride] | 30% of untreated control | – | – | – | – | 96.3 | 4041 | ~100 | 0.6 to 0.8 | > 650 | > 3220 | 19.3 | 426 | 1.37 | 68% of untreated control | – | – | – | – | – | activity at 100 µM (L1210 cells [2]; 100 μM, read-out: Put): 0%; activity at 100 µM (L1210 cells [2]; 100 μM, read-out: Spd): 5%; activity at 100 µM (L1210 cells [2]; 100 μM, read-out: Spm): 74%; activity at 500 µM (L1210 cells [2]; 500 μM, read-out: Put): 0%; activity at 500 µM (L1210 cells [2]; 500 μM, read-out: Spd): 0%; activity at 500 µM (L1210 cells [2]; 500 μM, read-out: Spm): 55%; Analogue (L1210 cells [2]; 100 μM): 4.61 nmol/10^6 cells; Analogue (L1210 cells [2]; 500 μM): 4.20 nmol/10^6 cells; SSAT activity, percent of untreated control [5]: 1380% of untreated control; Animals died on day 6 (mice; female, CD-1, mouse, in vivo, 15 mg/kg, 3 days): 4/5; Animals died on day 7 (mice; female, CD-1, mouse, in vivo, 15 mg/kg, 7 day): 5/5; Chronic toxicity in mice relative to the related tetraamine (mice): about five times less toxic than DE(3,4,3) |
| CNCCCNCCCNCCCNC [DMNSPM] | – | – | – | – | – | – | – | – | – | – | – | – | – | – | – | 5.6 | > 100 | 2.5 | 200% of untreated control | 49% of untreated control | Put, corresponding tetraamine (in parentheses) (L1210 cells [10]; % of untreated control, 500 μM): (0) %; Spd, corresponding tetraamine (in parentheses) (L1210 cells [10]; % of untreated control, 500 μM): (3) %; Spm, corresponding tetraamine (in parentheses) (L1210 cells [10]; % of untreated control, 500 μM): (27) %; Analogue, corresponding tetraamine (in parentheses) (L1210 cells [10]; 100 μM): (2.14) nmol/10^6 cells; Analogue, corresponding tetraamine (in parentheses) (L1210 cells [10]; 500 μM): (1.84) nmol/10^6 cells; N-dealkylation (result in words) (L1210 cells [3]): no evidence of N-dealkylation |
| CNCCCNCCCCNCCCNC [DMSPM] | – | – | – | – | – | – | – | – | – | – | – | – | – | – | – | 1.1 | > 100 | 0.75 | 300% of untreated control | 40% of untreated control | Analogue, corresponding tetraamine (in parentheses) (L1210 cells [10]; 100 μM): (1.26) nmol/10^6 cells; Analogue, corresponding tetraamine (in parentheses) (L1210 cells [10]; 500 μM): (1.24) nmol/10^6 cells; N-dealkylation (result in words) (L1210 cells [3]): no evidence of N-dealkylation |
| CCNCCCNCCCNCCCN [MENSPM] | – | – | – | – | – | – | – | – | – | – | – | – | – | – | – | 7.7 | > 100 | 2.5 | 410% of untreated control | 33% of untreated control | – |

From patent publication US20020045780A1, “Biologically active spermidine analogues, pharmaceutical compositions and methods of treatment” (priority 1997, published 2002)
